Measurements: ChEMBL document CHEMBL5291721, “A preclinical secondary pharmacology resource illuminates target-adverse drug reaction associations of marketed drugs” (Nat Commun, 2023)

Tests used:
D(1A) dopamine receptor = D(1A) dopamine receptor (Homo sapiens, UniProt P21728)
[1] = molecular target: Gamma-aminobutyric acid receptor subunit alpha-1/alpha-2/beta-2/gamma-2 (Homo sapiens, UniProt P14867+P18507+P47869+P47870); assay type: protein-complex assay
[2] = molecular target: Vascular endothelial growth factor receptor 2 (Homo sapiens, UniProt P35968); assay type: functional
Chain of Vascular endothelial growth factor receptor 2 (P35968 whole entry): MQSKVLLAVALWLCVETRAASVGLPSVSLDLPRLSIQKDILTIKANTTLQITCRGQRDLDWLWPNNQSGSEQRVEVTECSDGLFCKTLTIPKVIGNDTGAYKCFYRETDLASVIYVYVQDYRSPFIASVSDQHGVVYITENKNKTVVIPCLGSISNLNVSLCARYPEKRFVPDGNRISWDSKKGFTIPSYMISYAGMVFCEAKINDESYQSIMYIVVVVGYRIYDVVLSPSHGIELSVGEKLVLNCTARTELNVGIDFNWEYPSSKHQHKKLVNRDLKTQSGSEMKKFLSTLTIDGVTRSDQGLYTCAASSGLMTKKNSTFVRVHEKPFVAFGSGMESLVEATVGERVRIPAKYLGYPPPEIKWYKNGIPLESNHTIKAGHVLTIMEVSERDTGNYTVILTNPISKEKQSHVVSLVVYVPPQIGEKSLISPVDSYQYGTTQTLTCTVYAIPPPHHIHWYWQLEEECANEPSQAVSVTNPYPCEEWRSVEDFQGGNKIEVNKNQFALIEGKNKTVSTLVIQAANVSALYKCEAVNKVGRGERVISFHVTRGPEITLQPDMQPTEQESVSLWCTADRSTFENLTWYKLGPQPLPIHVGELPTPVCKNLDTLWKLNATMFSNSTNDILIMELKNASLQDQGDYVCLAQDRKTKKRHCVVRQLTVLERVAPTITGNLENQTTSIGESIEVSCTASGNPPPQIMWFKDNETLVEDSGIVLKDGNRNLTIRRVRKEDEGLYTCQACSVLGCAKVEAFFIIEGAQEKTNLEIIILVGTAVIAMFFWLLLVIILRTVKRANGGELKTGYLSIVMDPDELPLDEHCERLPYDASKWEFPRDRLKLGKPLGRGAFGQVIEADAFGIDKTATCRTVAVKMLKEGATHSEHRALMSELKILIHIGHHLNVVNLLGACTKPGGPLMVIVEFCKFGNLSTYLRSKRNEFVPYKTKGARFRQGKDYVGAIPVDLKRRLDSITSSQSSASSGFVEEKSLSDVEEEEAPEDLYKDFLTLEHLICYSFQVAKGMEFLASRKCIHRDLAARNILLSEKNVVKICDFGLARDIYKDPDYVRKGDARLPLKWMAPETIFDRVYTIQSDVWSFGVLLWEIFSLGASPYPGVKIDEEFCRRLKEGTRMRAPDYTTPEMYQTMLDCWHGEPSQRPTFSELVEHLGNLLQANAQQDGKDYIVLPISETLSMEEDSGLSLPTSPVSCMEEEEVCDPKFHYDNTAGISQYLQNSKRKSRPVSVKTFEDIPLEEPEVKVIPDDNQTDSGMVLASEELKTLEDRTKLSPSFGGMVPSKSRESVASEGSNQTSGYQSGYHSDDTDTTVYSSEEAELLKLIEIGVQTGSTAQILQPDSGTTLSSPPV

[3] = molecular target: T1, Amine oxidase [flavin-containing] A (Homo sapiens, UniProt P21397); assay type: functional
T1 sequence (P21397 whole entry): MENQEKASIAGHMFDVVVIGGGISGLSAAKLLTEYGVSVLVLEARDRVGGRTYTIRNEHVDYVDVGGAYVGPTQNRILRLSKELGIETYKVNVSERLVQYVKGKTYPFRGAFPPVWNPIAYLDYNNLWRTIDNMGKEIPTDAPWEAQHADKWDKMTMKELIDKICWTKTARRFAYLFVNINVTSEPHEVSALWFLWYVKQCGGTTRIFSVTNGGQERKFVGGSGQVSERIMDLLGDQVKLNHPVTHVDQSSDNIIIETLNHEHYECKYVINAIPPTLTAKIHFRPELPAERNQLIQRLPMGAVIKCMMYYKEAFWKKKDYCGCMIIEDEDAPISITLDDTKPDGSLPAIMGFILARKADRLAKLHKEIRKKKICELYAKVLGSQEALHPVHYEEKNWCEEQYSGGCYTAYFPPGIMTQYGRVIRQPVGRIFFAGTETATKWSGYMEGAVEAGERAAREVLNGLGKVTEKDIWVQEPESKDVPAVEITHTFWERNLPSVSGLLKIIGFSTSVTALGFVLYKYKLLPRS

Mu-type opioid receptor = Mu-type opioid receptor (Homo sapiens, UniProt P35372)
Chain of Mu-type opioid receptor (P35372 whole entry): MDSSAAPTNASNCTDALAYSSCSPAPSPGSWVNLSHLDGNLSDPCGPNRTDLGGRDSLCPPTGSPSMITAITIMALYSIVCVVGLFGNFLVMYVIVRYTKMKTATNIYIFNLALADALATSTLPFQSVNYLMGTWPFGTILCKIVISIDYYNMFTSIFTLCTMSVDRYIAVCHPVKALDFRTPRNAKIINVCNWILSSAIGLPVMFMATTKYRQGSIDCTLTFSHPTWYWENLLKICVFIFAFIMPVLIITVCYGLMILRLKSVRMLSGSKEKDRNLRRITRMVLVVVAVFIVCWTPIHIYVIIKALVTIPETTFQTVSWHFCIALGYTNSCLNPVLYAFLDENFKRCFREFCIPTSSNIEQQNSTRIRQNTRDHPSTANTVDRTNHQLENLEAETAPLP

[4] = molecular target: Prostaglandin G/H synthase 1 (Homo sapiens, UniProt P23219); assay type: functional
Chain of Prostaglandin G/H synthase 1 (P23219 whole entry): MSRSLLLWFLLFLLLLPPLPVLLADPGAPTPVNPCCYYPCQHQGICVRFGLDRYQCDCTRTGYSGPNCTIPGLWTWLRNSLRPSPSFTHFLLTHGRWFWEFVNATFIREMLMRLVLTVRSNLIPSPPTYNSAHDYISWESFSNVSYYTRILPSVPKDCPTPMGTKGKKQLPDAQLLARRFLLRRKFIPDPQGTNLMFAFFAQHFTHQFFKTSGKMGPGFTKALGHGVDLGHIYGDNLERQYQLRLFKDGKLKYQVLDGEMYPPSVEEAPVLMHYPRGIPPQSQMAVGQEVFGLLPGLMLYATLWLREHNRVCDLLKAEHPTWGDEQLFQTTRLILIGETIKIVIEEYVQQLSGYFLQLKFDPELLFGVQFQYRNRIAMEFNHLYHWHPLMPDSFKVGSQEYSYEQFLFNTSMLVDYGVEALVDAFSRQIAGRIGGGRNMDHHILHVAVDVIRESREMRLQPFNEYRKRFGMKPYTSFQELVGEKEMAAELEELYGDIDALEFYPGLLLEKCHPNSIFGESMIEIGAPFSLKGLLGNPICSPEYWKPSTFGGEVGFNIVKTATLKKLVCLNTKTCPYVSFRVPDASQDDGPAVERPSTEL

[5] = molecular target: Sodium-dependent noradrenaline transporter (Homo sapiens, UniProt P23975)
Chain of Sodium-dependent noradrenaline transporter (P23975 whole entry): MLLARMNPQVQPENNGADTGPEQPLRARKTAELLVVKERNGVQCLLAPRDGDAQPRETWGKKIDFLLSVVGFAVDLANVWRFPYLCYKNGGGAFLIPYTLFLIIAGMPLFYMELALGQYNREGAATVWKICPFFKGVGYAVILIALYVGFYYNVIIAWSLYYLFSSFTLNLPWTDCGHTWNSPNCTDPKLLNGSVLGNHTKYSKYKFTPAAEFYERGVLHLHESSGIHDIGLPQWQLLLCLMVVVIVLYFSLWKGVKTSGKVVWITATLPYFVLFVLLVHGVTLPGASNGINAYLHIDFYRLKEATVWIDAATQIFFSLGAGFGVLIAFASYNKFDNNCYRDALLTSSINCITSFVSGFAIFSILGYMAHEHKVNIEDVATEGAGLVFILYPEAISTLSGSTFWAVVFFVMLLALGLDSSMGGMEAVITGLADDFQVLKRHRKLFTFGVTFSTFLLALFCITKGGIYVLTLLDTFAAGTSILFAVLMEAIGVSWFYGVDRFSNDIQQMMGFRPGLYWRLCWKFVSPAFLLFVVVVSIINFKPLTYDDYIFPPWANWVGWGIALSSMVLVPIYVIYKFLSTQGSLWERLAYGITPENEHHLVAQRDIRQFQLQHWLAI

[6] = molecular target: T2, Muscarinic acetylcholine receptor M1 (Homo sapiens, UniProt P11229); assay type: functional, cell-based
T2 sequence (P11229 whole entry): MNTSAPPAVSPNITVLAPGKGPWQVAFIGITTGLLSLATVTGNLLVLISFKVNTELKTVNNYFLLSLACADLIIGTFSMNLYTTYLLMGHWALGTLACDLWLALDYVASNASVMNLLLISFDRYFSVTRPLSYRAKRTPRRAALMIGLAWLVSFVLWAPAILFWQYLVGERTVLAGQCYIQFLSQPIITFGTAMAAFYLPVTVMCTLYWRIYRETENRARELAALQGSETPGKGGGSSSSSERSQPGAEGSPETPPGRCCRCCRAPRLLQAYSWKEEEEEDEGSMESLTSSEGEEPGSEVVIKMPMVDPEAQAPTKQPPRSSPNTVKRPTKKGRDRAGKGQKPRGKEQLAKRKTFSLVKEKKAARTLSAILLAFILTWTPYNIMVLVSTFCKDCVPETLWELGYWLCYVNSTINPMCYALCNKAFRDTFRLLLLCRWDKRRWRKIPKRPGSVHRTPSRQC

[7] = molecular target: T2, Muscarinic acetylcholine receptor M1; assay type: functional, cell-based; remark: listed apart in the source
[8] = molecular target: Sodium-dependent serotonin transporter (Homo sapiens, UniProt P31645)
Chain of Sodium-dependent serotonin transporter (P31645 whole entry): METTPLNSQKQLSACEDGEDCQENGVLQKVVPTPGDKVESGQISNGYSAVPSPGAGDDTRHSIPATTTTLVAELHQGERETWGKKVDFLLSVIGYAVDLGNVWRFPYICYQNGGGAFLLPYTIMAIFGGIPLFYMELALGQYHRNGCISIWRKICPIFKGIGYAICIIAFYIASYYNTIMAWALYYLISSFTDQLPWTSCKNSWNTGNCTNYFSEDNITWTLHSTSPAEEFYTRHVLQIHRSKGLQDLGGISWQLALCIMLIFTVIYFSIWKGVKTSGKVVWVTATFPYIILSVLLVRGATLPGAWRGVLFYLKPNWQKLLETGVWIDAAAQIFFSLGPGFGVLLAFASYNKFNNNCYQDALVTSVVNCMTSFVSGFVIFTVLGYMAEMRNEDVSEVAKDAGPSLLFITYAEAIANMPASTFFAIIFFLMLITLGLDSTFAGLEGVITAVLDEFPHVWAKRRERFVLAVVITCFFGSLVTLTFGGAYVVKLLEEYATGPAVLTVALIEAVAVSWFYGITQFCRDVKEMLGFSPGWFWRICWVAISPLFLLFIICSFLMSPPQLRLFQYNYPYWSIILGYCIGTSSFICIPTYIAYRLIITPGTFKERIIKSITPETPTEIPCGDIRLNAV

[9] = molecular target: Gamma-aminobutyric acid receptor subunit alpha-1 (Rattus norvegicus, UniProt P62813)
Chain of Gamma-aminobutyric acid receptor subunit alpha-1 (P62813 whole entry): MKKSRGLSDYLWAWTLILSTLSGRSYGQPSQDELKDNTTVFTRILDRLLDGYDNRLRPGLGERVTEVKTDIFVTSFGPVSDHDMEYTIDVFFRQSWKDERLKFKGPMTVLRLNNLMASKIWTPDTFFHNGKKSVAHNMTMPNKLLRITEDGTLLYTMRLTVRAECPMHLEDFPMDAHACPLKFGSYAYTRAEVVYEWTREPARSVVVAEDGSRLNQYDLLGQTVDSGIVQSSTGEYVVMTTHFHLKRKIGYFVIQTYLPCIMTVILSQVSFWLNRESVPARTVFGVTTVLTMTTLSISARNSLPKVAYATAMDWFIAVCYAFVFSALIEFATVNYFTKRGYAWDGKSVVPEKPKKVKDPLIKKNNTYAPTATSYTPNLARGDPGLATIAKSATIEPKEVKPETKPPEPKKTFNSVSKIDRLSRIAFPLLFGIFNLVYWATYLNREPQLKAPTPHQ

[10] = molecular target: T3, Alpha-1A adrenergic receptor (Homo sapiens, UniProt P35348); assay type: functional, cell-based
T3 sequence (P35348 whole entry): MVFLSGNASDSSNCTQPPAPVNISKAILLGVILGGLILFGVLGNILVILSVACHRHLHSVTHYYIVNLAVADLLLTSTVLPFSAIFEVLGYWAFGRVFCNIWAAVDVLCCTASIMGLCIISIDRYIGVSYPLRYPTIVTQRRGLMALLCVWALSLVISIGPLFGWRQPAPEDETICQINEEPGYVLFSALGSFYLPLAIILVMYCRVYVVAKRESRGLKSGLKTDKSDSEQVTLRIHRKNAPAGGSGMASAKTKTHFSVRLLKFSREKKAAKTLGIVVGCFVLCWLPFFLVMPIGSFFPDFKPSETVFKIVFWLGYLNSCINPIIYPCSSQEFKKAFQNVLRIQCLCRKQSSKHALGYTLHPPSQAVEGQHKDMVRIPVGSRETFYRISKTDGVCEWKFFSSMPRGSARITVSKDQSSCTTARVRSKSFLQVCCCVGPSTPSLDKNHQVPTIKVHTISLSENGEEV
Further: assay procedure not described here.

Chain of D(1A) dopamine receptor (P21728 whole entry): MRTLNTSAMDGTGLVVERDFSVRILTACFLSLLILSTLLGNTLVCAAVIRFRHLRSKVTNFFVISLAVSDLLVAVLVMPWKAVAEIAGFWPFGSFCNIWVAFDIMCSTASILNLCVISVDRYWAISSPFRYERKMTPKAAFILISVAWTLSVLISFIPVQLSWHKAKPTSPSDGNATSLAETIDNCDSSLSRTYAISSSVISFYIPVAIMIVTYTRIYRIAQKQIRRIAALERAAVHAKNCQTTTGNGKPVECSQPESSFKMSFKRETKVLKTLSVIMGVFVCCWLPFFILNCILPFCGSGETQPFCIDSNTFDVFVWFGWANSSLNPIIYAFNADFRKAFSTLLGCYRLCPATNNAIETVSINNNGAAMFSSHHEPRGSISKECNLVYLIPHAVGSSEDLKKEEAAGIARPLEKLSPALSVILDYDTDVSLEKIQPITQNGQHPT

SMILES | AC50 (D(1A) dopamine receptor) [µM] | AC50 [1] [µM] | AC50 [2] [µM] | AC50 [3] [µM] | AC50 (Mu-type opioid receptor) [µM] | AC50 [4] [µM] | AC50 [5] [µM] | AC50 [6] [µM] | AC50 [7] [µM] | AC50 [8] [µM] | AC50 [9] [µM] | AC50 [10] [µM]
CC(C)N1CCN(c2ccc(OCC3COC(Cn4cncn4)(c4ccc(Cl)cc4Cl)O3)cc2)CC1 (stereo not drawn) [TERCONAZOLE] | 25.2 | > 30 | > 30 | > 30 | > 30 | > 30 | > 30 | – | – | – | – | –
Cc1ccc(Cl)c(Nc2ccccc2C(=O)O)c1Cl [MECLOFENAMIC ACID] | > 30 | > 3 | > 30 | > 30 | > 30 | 0.0142 | > 30 | – | – | – | – | –
C[C@@H]1CN(c2c(F)c(N)c3c(=O)c(C(=O)O)cn(C4CC4)c3c2F)C[C@H](C)N1 [SPARFLOXACIN] | > 30 | > 30 | > 30 | > 30 | > 30 | > 30 | > 30 | – | – | – | – | –
C#C[C@]1(OC(C)=O)CC[C@H]2[C@@H]3CCC4=CC(=O)CC[C@@H]4[C@H]3CC[C@@]21C [NORETHINDRONE ACETATE] | > 30 | > 10 | > 30 | > 30 | > 30 | > 30 | 19.1 | – | – | – | – | –
CN1CCCC(CC2c3ccccc3Sc3ccccc32)C1 (stereo not drawn) [METHIXENE] | 2.03 | > 30 | > 30 | > 30 | 13.9 | > 30 | 3.29 | > 30 | 0.0109 | 18.2 | – | –
Cc1cnc(C(=O)O)c[n+]1[O-] [ACIPIMOX] | > 30 | > 30 | > 30 | > 30 | > 30 | > 30 | > 30 | > 30 | > 30 | > 30 | – | –
COc1ncnc(NS(=O)(=O)c2ccc(N)cc2)c1OC [SULFADOXINE] | > 30 | > 30 | > 30 | > 30 | > 30 | > 30 | > 30 | – | – | – | > 30 | –
Cc1c(C(C)C)c(=O)n(-c2ccccc2)n1C [PROPYPHENAZONE] | > 30 | > 30 | > 30 | > 30 | > 30 | > 30 | > 30 | > 30 | > 30 | > 30 | – | –
CCCCC(=O)O[C@H]1CC[C@H]2[C@@H]3CCc4cc(O)ccc4[C@H]3CC[C@]12C [ESTRADIOL VALERATE] | > 30 | > 10 | > 30 | > 30 | > 30 | 7.05 | > 30 | > 30 | 23.1 | > 30 | – | –
O=c1[nH]c(=O)n([C@H]2C[C@H](O)[C@@H](CO)O2)cc1/C=C/Br [BRIVUDINE] | > 30 | > 30 | > 30 | > 30 | > 30 | > 30 | > 30 | > 30 | > 30 | > 30 | – | –
CC(=O)OCC(=O)[C@@]1(OC(C)=O)[C@@H](C)C[C@H]2[C@@H]3C[C@H](F)C4=CC(=O)C=C[C@]4(C)[C@@]3(F)[C@@H](O)C[C@@]21C [DIFLORASONE DIACETATE] | > 30 | > 30 | > 30 | > 30 | > 30 | > 30 | > 30 | – | – | – | – | –
Nc1ccc(C(=O)NCC(=O)O)cc1 [AMINOHIPPURIC ACID] | > 30 | > 30 | > 30 | > 30 | > 30 | > 30 | > 30 | > 30 | > 30 | > 30 | – | –
Cc1ncc(CO)c(CO)c1O [PYRIDOXINE] | > 30 | > 30 | > 30 | > 30 | > 30 | > 30 | > 30 | > 30 | > 30 | > 30 | > 30 | –
COc1cc(C[C@@H]2NCCc3cc(O)c(O)cc32)cc(OC)c1OC [TRETOQUINOL] | 4.72 | > 30 | > 30 | > 30 | 15.5 | > 30 | > 30 | > 30 | > 30 | > 30 | – | –
Cc1ccc(O)c([C@H](CCN(C(C)C)C(C)C)c2ccccc2)c1 [TOLTERODINE] | > 30 | > 30 | – | > 30 | > 30 | – | > 30 | > 30 | 0.0206 | 20.3 | > 30 | > 30
CC(CN(C)C)CN1c2ccccc2CCc2ccccc21 (stereo not drawn) [TRIMIPRAMINE] | – | > 30 | > 30 | > 30 | 5.7 | > 30 | 18.5 | – | – | – | – | –
N[C@@H](Cc1ccc(N(CCCl)CCCl)cc1)C(=O)O | > 30 | > 30 | > 30 | > 30 | 20.6 | > 30 | > 30 | – | – | – | – | –
NC(=O)N/N=C/c1ccc([N+](=O)[O-])o1 [NITROFURAZONE] | > 30 | > 30 | > 30 | > 30 | > 30 | > 30 | > 30 | > 30 | > 30 | > 30 | > 30 | –
Nc1ccn(C[C@@H](CO)OCP(=O)(O)O)c(=O)n1 [CIDOFOVIR] | > 30 | > 30 | > 30 | > 30 | > 30 | > 30 | > 30 | > 30 | > 30 | > 30 | – | –
CCOC1O[C@H]([C@@H](COCc2ccccc2)OCc2ccccc2)[C@H](OCc2ccccc2)[C@H]1O (stereo partly drawn) [TRIBENOSIDE] | > 30 | – | > 30 | > 30 | > 30 | > 30 | > 30 | > 30 | 8.21 | > 30 | > 30 | –
C[C@H]1C[C@H]2[C@@H]3CCC4=CC(=O)C=C[C@]4(C)[C@@]3(F)[C@@H](O)C[C@]2(C)[C@@]1(O)C(=O)CO [BETAMETHASONE] | > 30 | > 30 | > 30 | > 30 | > 30 | > 30 | > 30 | – | – | – | – | –
CCn1c(=O)c2c(nc(/C=C/c3ccc(OC)c(OC)c3)n2C)n(CC)c1=O [ISTRADEFYLLINE] | > 30 | > 30 | > 10 | > 30 | > 30 | > 30 | > 30 | > 30 | > 30 | > 30 | – | > 30
NS(=O)(=O)c1cc2c(cc1Cl)NC(C(Cl)Cl)NS2(=O)=O (stereo not drawn) [TRICHLORMETHIAZIDE] | > 30 | > 30 | > 30 | > 30 | > 30 | > 30 | > 30 | – | – | – | – | –
